Where two headings read alike, the source gives them in different places.
What was measured:
[1] = tested on: SKRC-52 renal cell carcinoma; test: Tumor therapy in SKRC-52 xenografts: compound 2 with L19-IL2; type: in vivo, BALB/c nu/nu mice; conditions: day 17 after tumor implantation; compound 2 250 nmol/kg IV, L19-IL2 2.5 mg/Kg IV, single or combined
Excerpt: Animals were sacrificed when the termination criteria were reached.

[2] = tested on: SKRC-52 renal cell carcinoma; conditions: for anti-cancer activity compared to vehicle: 250 nmol/Kg IV per administration, n=4 per group, p<0.0001 for compounds 2 and 4; for tumor growth retardation compared with the other SMDCs: compound 2 vs compound 4
Method: SKRC-52 cells were grown to 80% confluence and detached with Trypsin-EDTA 0.05% (Life Technologies). Cells were washed with Hank's Balanced Salt Solution (HBSS, pH 7.4) once, counted and re-suspended in HBSS to a final concentration of 5×10^7 cells/ml. Aliquots of 5×10^6 cells (100 μl of a suspension) were injected subcutaneously in the right flank of female athymic BALB/c nu/nu mice (6-8 weeks of age, Janvier).

in vivo [3] = conditions: nude, mouse
in vivo [4] = test: in vivo; design: species or system BALB/c nu/nu mice; conditions: female, BALB/c nu/nu, mouse, iv, 30 nmol/kg, total radioactivity
Method: (§1) Radiolabeling procedures with technetium-99m were performed following described procedures (Krall N, Pretto F, Mattarella M, Muller C, Neri D. A technetium 99m-labeled ligand of carbonic anhydrase IX selectively targets renal cell carcinoma in vivo. J Nucl Med 2016; and Cazzamalli S, Dal Corso A, Neri D. Acetazolamide serves as selective delivery vehicle for dipeptide-linked drugs to renal cell carcinoma. Mol Cancer Ther 2016). Briefly, compounds 8, 9 and 10 (60 nmol) in TBS pH 7.4 (50 μl) were separately mixed with SnCl2 (Sigma Aldrich, 200 μg) and sodium glucoheptonate (TCI, 20 mg) in H2O (150 μl). Tris-buffered saline at pH 7.4 (600 μl) was added and the resulting solution degassed for 5 min by bubbling with nitrogen gas. The eluate from a ^99mTc-generator (200 μl, ca. 200 MBq, Mallinckrodt) was added and the reaction mixture heated to 90° C. for 20 min After cooling to room temperature, analytic aliquots were analyzed by RP-HPLC (XTerra C18, 5% MeCN in 0.1% aq. TFA to 80% over 20 min on a Merck-Hitachi D-7000 HPLC system equipped with a Raytest Gabi Star radiodetector) to determine radiolabelling yields. ^99mTc incorporations >95% were routinely achieved.
(§2) Mice were randomized (n=3 per group) and injected intravenously with radiolabelled preparations of compounds 8, 9 or 10 (1-3 MBq, 30 nmol/Kg). Mice were sacrificed 6 hours after the injection by CO2 asphyxiation and organs extracted, weighted and radioactivity measured with a Packard Cobra γ-counter. Values are expressed as % ID/g ±SD (FIG. 10B).

SKRC-52 xenografts = test: in vivo; design: species or system BALB/c nu/nu mice; conditions: mouse, iv
Method: as §1, §2

[5] = tested on: SKRC-52 renal cell carcinoma; test: Tumor rechallenge of cured mice with SKRC-52, then treatment of regrowing tumors; type: in vivo, BALB/c nu/nu mice; conditions: L19-IL2 2.5 mg/Kg alone; 3 mice
Method: To determine whether the CAIX ligand armed with MMAE (compound 2, see example 1) in combination with L19-IL2 caused acquired protective immunity against the tumor, mice that were cured in the therapy experiment of Example 2 were injected with 5×10^6 cells (100 μl of a suspension) SKRC-52 cells/mouse 20 days after the treatment ended. […] Mice were rearranged in two groups and treated with either the compound 2 alone (250 nmol/Kg; 2 mice), or L19-IL2 (2.5 mg/Kg; 3 mice) alone (see the schedule in FIGS. 4A and 4B).

renal cell carcinoma = conditions: 18 patients with renal cell carcinoma; cited from earlier work

In the case of `CC[C@H](C)[C@@H]([C@@H](CC(=O)N1CCC[C@H]1[C@H](OC)[C@@H](C)C(=O)N[C@H](C)[C@@H](O)c1ccccc1)OC)N(C)C(=O)[C@@H](NC(=O)[C@H](C(C)C)N(C)C(=O)OCc1ccc(NC(=O)[C@H](CCCNC(N)=O)NC(=O)[C@@H](NC(=O)CCCCCN2C(=O)CC(SC[C@H](NC(=O)[C@H](CC(=O)O)NC(=O)[C@H](CCCNC(=N)N)NC(=O)[C@H](CC(=O)O)NC(=O)[C@H](CCCCn3cc(CCCC(=O)Nc4nnc(S(N)(=O)=O)s4)nn3)NC(=O)C[C@H](NC(=O)C[C@H](NC(=O)CCC(C)(c3ccc(O)cc3)c3ccc(O)cc3)C(=O)O)C(=O)O)C(=O)O)C2=O)C(C)C)cc1)C(C)C` (stereo partly shown) [compound 2, AAZ*-ValCit-MMAE], the “antitumor activity (FIG. 3)” value [1] was “Potent antitumor activity”, the durable complete response ([2]; 250 nmol/Kg IV) was “no mice had a durable complete response” and the “tolerability (body weight changes, FIG. 9B)” value ([2]; 250 nmol/Kg IV) was “very well tolerated”. The “anti-cancer activity compared to vehicle” value [2] was “potent anti-cancer activity”, the “tumor growth retardation compared with the other SMDCs” value ([2]; 250 nmol/Kg IV) was “most potent tumor growth retardation effect” and the “tumor growth retardation compared with the other SMDCs” value ([2]; 250 nmol/Kg IV, listed as SMDC 2) was “superior antitumor activity”. The “therapeutic efficacy after presaturation with excess of free AAZ* (compound 7)” value ([2]; 50-fold dose of AAZ* ligand (1.25 μmol/Kg) directly followed by compound 2 250 nmol/Kg) was “reduced significantly” and the MTD (in vivo [3]) was 0.25 µmol/kg.
In the case of `CC[C@H](C)[C@@H]([C@@H](CC(=O)N1CCC[C@H]1[C@H](OC)[C@@H](C)C(=O)N[C@H](C)[C@@H](O)c1ccccc1)OC)N(C)C(=O)[C@@H](NC(=O)[C@H](C(C)C)N(C)C(=O)OCc1ccc(NC(=O)[C@H](CCCNC(N)=O)NC(=O)[C@@H](NC(=O)CCCCCN2C(=O)CC(SC[C@H](NC(=O)[C@H](CC(=O)O)NC(=O)[C@H](CCCNC(=N)N)NC(=O)[C@H](CC(=O)O)NC(=O)CCCCn3cc(CCCC(=O)Nc4nnc(S(N)(=O)=O)s4)nn3)C(=O)O)C2=O)C(C)C)cc1)C(C)C` (stereo partly shown) [compound 4, AAZ-ValCit-MMAE, reference compound], the “anti-cancer activity compared to vehicle” value [2] was “potent anti-cancer activity”.
In the case of `CC[C@H](C)[C@@H]([C@@H](CC(=O)N1CCC[C@H]1[C@H](OC)[C@@H](C)C(=O)N[C@H](C)[C@@H](O)c1ccccc1)OC)N(C)C(=O)[C@@H](NC(=O)[C@H](C(C)C)N(C)C(=O)OCc1ccc(NC(=O)[C@H](CCCNC(N)=O)NC(=O)[C@@H](NC(=O)CCCCCN2C(=O)CC(SC[C@H](NC(=O)[C@H](CC(=O)O)NC(=O)[C@H](CCCNC(=N)N)NC(=O)[C@H](CC(=O)O)NC(=O)[C@H](CCCCn3cc(CCCC(N)=O)nn3)NC(=O)C[C@H](NC(=O)C[C@H](NC(=O)CCC(C)(c3ccc(O)cc3)c3ccc(O)cc3)C(=O)O)C(=O)O)C(=O)O)C2=O)C(C)C)cc1)C(C)C` (stereo partly shown) [compound 6, NH2^+-ValCit-MMAE], the “anti-cancer activity compared to vehicle” value [2] was “did not display a difference from the vehicle-treated group”.
With `CC(CCC(=O)N[C@@H](CC(=O)N[C@@H](CC(=O)N[C@@H](CCCCn1cc(CCCC(=O)Nc2nnc(S(N)(=O)=O)s2)nn1)C(=O)NCCCC[C@H](N)C(=O)N[C@@H](CC(=O)O)C(=O)N[C@@H](CS)C(=O)O)C(=O)O)C(=O)O)(c1ccc(O)cc1)c1ccc(O)cc1` [compound 8, AAZ*-^99mTc Chelator, metal not drawn] the tissue uptake at 6 h (in vivo [4]) was 40 %ID/g and the “tumor to blood ratio” value (SKRC-52 xenografts) was 80:1.
With `N[C@@H](CCCCNC(=O)[C@H](CC(=O)O)NC(=O)CCCCn1cc(CCCC(=O)Nc2nnc(S(N)(=O)=O)s2)nn1)C(=O)N[C@@H](CC(=O)O)C(=O)N[C@@H](CS)C(=O)O` [compound 9, AAZ-^99mTc Chelator, metal not drawn, reference compound] the tissue uptake at 6 h (in vivo [4]) was 18 %ID/g.
For “L19-IL2: immunocytokine in which the anti-EDB antibody L19 (scFv) is conjugated to IL-2, SEQ ID NO: 22”, the “antitumor activity (FIG. 3)” value [1] is listed as “Potent antitumor activity”, the “second complete tumor regression of regrowing tumors” value [5] is listed as “second complete tumor regression for all 3 animals” and the objective responses (renal cell carcinoma) is listed as “no objective responses”.

From patent US20190375837A1, “IMMUNOCYTOKINE COMBINATION THERAPY” (priority 2017, published 2019)
